Where two headings read alike, the source gives them in different places.
Key:
[1] = biological target: biotinylated Avi-POLθ[2-894] (Homo sapiens (Human), UniProt O75417); test: POLθ ATPase assay (ADP-Glo); conditions: n=2, read-out: Biochemical ATPase ADPGlo IC50
DLD1 BRCA2 (−/−) cells = test: 7-day cell viability assay (CellTiter-Glo), DLD1 BRCA2 (−/−); format: cell-based, human; conditions: Homo sapiens, DLD-1, 168 h, n=2, read-out: Viability IC50 (uM) DLD1 BRCA2 null
How it was run: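 7-day growth assay in DLD1 cells with or without BRCA2; seeding densities chosen to keep log-linear growth. Compound: 10 uM top, 3-fold, 9 points. Endpoint: CTG ATP luminescence at RT.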

DLD1 WT cells = test: 7-day cell viability assay (CellTiter-Glo), DLD1 parental (WT); format: cell-based, human; conditions: Homo sapiens, DLD-1, 168 h, n=2

biotinylated Avi-POLθ[2-894], sequence (O75417 2-894): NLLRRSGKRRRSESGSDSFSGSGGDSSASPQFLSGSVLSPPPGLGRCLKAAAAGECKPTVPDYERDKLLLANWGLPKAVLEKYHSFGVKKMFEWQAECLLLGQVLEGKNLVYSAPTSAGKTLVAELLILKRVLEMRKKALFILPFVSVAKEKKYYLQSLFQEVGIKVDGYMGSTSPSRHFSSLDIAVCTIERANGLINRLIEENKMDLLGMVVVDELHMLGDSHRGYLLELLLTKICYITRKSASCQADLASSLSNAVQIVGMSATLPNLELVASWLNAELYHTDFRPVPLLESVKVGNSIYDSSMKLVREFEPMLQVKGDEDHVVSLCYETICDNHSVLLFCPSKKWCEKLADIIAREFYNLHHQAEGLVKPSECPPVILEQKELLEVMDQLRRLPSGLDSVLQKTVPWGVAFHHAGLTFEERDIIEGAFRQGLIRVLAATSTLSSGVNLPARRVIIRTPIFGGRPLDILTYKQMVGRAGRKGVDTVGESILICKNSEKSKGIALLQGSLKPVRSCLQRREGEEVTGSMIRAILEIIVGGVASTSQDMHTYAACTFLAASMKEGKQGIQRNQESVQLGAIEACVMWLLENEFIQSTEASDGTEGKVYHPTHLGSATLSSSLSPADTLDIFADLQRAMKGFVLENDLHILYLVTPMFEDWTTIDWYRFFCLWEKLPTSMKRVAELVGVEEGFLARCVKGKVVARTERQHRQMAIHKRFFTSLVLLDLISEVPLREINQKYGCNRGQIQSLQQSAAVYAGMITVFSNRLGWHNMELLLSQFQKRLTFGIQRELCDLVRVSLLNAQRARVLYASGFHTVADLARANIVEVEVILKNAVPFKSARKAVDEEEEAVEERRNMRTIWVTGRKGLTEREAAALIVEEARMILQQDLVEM

SMILES | IC50 [1] [nM] | IC50 (DLD1 BRCA2 (−/−) cells; 7-day viability) [µM] | IC50 ([1]; POLθ ATPase, ADP-Glo) [nM] | IC50 (DLD1 BRCA2 (−/−) cells; 7-day CellTiter-Glo) [µM] | IC50 (DLD1 WT cells; 7-day viability) [µM] | IC50 (DLD1 WT cells; 7-day CellTiter-Glo) [µM]
COc1cnc(Cl)cc1-c1cc(C)ncc1C(=O)Nc1nc2c(s1)CN(C(=O)c1cc(C)nn1C(F)F)C2 | 1 to 15 | 0.1 to 0.25 | – | – | ≥ 10 | –
COc1cnc(Cl)cc1-c1cc(C)ncc1C(=O)Nc1nc2c(s1)CC(Nc1ccccc1)CC2 (stereo not drawn) | 1 to 15 | 0.1 to 0.25 | – | – | ≥ 10 | –
COc1cnc(Cl)cc1-c1cc(C)ncc1C(=O)Nc1nc2c(s1)CN(C(=O)[C@@H]1CCCOC1)C2 | 1 to 15 | 0.5 to 2 | – | – | ≥ 10 | –
COc1cnc(Cl)cc1-c1cc(C)ncc1C(=O)Nc1nc2c(s1)CN(C(=O)c1cn(C)nc1OC)C2 | 1 to 15 | 0.25 to 0.5 | – | – | ≥ 10 | –
COc1ccc(C#N)cc1-c1cc(C)ncc1C(=O)Nc1nc2c(s1)CN(S(=O)(=O)N1CCOCC1)C2 | 1 to 15 | ≥ 2 | – | – | ≥ 10 | –
COc1ccc(C#N)cc1-c1cc(C)ncc1C(=O)Nc1nc2c(s1)CN(S(=O)(=O)N1CCCC1)C2 | 1 to 15 | 0.5 to 2 | – | – | ≥ 10 | –
COc1ccc(C#N)cc1-c1cc(C)ncc1C(=O)Nc1nc2c(s1)CN(S(=O)(=O)N1CCCCC1)C2 | 1 to 15 | 0.5 to 2 | – | – | ≥ 10 | –
COc1ccc(C#N)cc1-c1cc(C)ncc1C(=O)Nc1nc2c(s1)CN(S(=O)(=O)NCC(F)(F)F)C2 | 1 to 15 | ≥ 2 | – | – | ≥ 10 | –
COc1ccc(C#N)cc1-c1cc(C)ncc1C(=O)Nc1nc2c(s1)CC(Nc1ccccc1)CC2 (stereo not drawn) | 1 to 15 | 0.1 to 0.25 | – | – | ≥ 10 | –
COc1ccccc1-c1cc(C)ncc1C(=O)Nc1nc2c(s1)CN(C(=O)C1CC1)C2 | 150 to 900 | ≥ 2 | – | – | ≥ 10 | –
COc1ccccc1-c1cc(C)ncc1C(=O)Nc1nc2c(s1)CN(C(=O)C1CC1)CC2 | ≥ 900 | ≥ 2 | – | – | 0.5 to 2 | –
COc1ccccc1-c1cc(C)ncc1C(=O)Nc1nc2c(s1)CN(c1ccc(Cl)cc1)CC2 | ≥ 900 | ≥ 2 | – | – | ≥ 10 | –
COc1ccccc1-c1cc(C)ncc1C(=O)Nc1nc2c(s1)CN(CC1CCCCC1)CC2 | ≥ 900 | ≥ 2 | – | – | ≥ 10 | –
COc1ccccc1-c1cc(C)ncc1C(=O)Nc1nc2c(s1)CN(C(=O)c1ccccc1)CC2 | ≥ 900 | 0.5 to 2 | – | – | 0.5 to 2 | –
COc1ccccc1-c1cc(C)ncc1C(=O)Nc1nc2c(s1)CN(Cc1ccccc1)CC2 | ≥ 900 | 0.5 to 2 | – | – | 0.5 to 2 | –
COc1ccccc1-c1cc(C)ncc1C(=O)Nc1nc2c(s1)C(=O)NCC2 | ≥ 900 | ≥ 2 | – | – | ≥ 10 | –

SMILES | IC50 [1] [nM] | IC50 (DLD1 BRCA2 (−/−) cells; 7-day viability) [µM] | IC50 ([1]; POLθ ATPase, ADP-Glo) [nM] | IC50 (DLD1 BRCA2 (−/−) cells; 7-day CellTiter-Glo) [µM] | IC50 (DLD1 WT cells; 7-day viability) [µM] | IC50 (DLD1 WT cells; 7-day CellTiter-Glo) [µM]
COc1ccccc1-c1cc(C)ncc1C(=O)Nc1nc2c(s1)CNCC2 | ≥ 900 | ≥ 2 | – | – | ≥ 10 | –
COc1cnc(Cl)cc1-c1cc(C)ncc1C(=O)Nc1nc2c(s1)CN(C(=O)c1cnc(C(F)(F)F)cn1)C2 | – | – | 1 to 15 | 0.001 to 0.1 | – | ≥ 10
COc1cnc(Cl)cc1-c1cc(C)ncc1C(=O)Nc1nc2c(s1)CN(C(=O)c1ccc(F)c(C(F)F)c1)C2 | – | – | 1 to 15 | 0.001 to 0.1 | – | 5 to 10
COc1cnc(Cl)cc1-c1cc(C)ncc1C(=O)Nc1nc2c(s1)CN(C(=O)c1cccc(Cl)c1OC)C2 | – | – | 1 to 15 | 0.001 to 0.1 | – | 5 to 10
COc1cnc(Cl)cc1-c1cc(C)ncc1C(=O)Nc1nc2c(s1)CN(C(=O)c1ccc(C(F)(F)F)c(Cl)n1)C2 | – | – | 1 to 15 | 0.001 to 0.1 | – | ≥ 10
COc1cnc(Cl)cc1-c1cc(C)ncc1C(=O)Nc1nc2c(s1)CN(C(=O)c1ncc(Br)cc1OC)C2 | – | – | 1 to 15 | 0.1 to 0.25 | – | ≥ 10
COc1cnc(Cl)cc1-c1cc(C)ncc1C(=O)Nc1nc2c(s1)CN(C(=O)c1ccc(C(F)F)cc1Cl)C2 | – | – | 1 to 15 | 0.001 to 0.1 | – | ≥ 10
COc1cnc(Cl)cc1-c1cc(C)ncc1C(=O)Nc1nc2c(s1)CN(C(=O)c1nc(C(F)F)ccc1Cl)C2 | – | – | 1 to 15 | 0.001 to 0.1 | – | ≥ 10
COc1ccc(Cl)c(C(=O)N2Cc3nc(NC(=O)c4cnc(C)cc4-c4cc(Cl)ncc4OC)sc3C2)n1 | – | – | 1 to 15 | 0.001 to 0.1 | – | ≥ 10
COc1cnc(Cl)cc1-c1cc(C)ncc1C(=O)Nc1nc2c(s1)CN(C(=O)c1nc3ccccc3o1)C2 | – | – | 1 to 15 | 0.001 to 0.1 | – | ≥ 10
COc1cc(Cl)nc(C(=O)N2Cc3nc(NC(=O)c4cnc(C)cc4-c4cc(Cl)ncc4OC)sc3C2)c1 | – | – | 1 to 15 | 0.001 to 0.1 | – | ≥ 10
COc1cc(Cl)cc(C(=O)N2Cc3nc(NC(=O)c4cnc(C)cc4-c4cc(Cl)ncc4OC)sc3C2)n1 | – | – | 1 to 15 | 0.001 to 0.1 | – | ≥ 10
COc1cnc(Cl)cc1-c1cc(C)ncc1C(=O)Nc1nc2c(s1)CN(C(=O)c1ccc(OC)c(C(F)F)n1)C2 | – | – | 1 to 15 | 0.001 to 0.1 | – | ≥ 10
COc1nnc(Cl)cc1-c1cc(C)ncc1C(=O)Nc1nc2c(s1)CN(C(=O)c1ccc(C(F)F)cn1)C2 | – | – | 1 to 15 | 0.001 to 0.1 | – | ≥ 10
COc1cnc(Cl)cc1-c1cc(C)ncc1C(=O)Nc1nc2c(s1)CN(C(=O)c1ccc(OC(F)F)nc1Cl)C2 | – | – | 1 to 15 | 0.001 to 0.1 | – | ≥ 10
COc1cnc(Cl)cc1-c1cc(C)ncc1C(=O)Nc1nc2c(s1)CN(C(=O)c1cnn(C)c1Cl)C2 | 1 to 15 | 0.001 to 0.1 | – | – | ≥ 10 | –

Continued, in another order:

IC50 [1] [nM] | IC50 (DLD1 BRCA2 (−/−) cells; 7-day viability) [µM] | IC50 ([1]; POLθ ATPase, ADP-Glo) [nM] | IC50 (DLD1 BRCA2 (−/−) cells; 7-day CellTiter-Glo) [µM] | SMILES | IC50 (DLD1 WT cells; 7-day viability) [µM] | IC50 (DLD1 WT cells; 7-day CellTiter-Glo) [µM]
1 to 15 | 0.25 to 0.5 | – | – | COc1cnc(Cl)cc1-c1cc(C)ncc1C(=O)Nc1nc2c(s1)CN(C(=O)c1ccncc1)C2 | ≥ 10 | –
1 to 15 | ≥ 2 | – | – | COc1ccc(C#N)cc1-c1cc(C)ncc1C(=O)Nc1nc2c(s1)CN(S(=O)(=O)NC1CC1)C2 | ≥ 10 | –
1 to 15 | 0.5 to 2 | – | – | COc1ccc(C#N)cc1-c1cc(C)ncc1C(=O)Nc1nc2c(s1)CN(C(=O)C1CC(CC(F)F)C1)C2 (stereo not drawn) | ≥ 10 | –
1 to 15 | ≥ 2 | – | – | COc1ccc(C#N)cc1-c1cc(C)ncc1C(=O)Nc1nc2c(s1)CN(C(=O)[C@H]1C[C@@H](C#N)C1)C2 | ≥ 10 | –
1 to 15 | 0.5 to 2 | – | – | COc1ccc(C#N)cc1-c1cc(C)ncc1C(=O)Nc1nc2c(s1)CN(C(=O)C1CCCC1)C2 | ≥ 10 | –
1 to 15 | 0.5 to 2 | – | – | COc1ccc(C#N)cc1-c1cc(C)ncc1C(=O)Nc1nc2c(s1)CN(C(=O)[C@H]1C[C@@H](OC)C1)C2 | ≥ 10 | –
1 to 15 | ≥ 2 | – | – | COc1ccc(C#N)cc1-c1cc(C)ncc1C(=O)Nc1nc2c(s1)CN(C(=O)c1ccncc1)C2 | ≥ 10 | –
1 to 15 | ≥ 2 | – | – | COc1ccc(C#N)cc1-c1cc(C)ncc1C(=O)Nc1nc2c(s1)CN(C(=O)c1ccncc1C)C2 | ≥ 10 | –
1 to 15 | ≥ 2 | – | – | COc1ccc(C#N)cc1-c1cc(C)ncc1C(=O)Nc1nc2c(s1)CN(C(=O)c1ccnc(C)c1)C2 | ≥ 10 | –
1 to 15 | 0.5 to 2 | – | – | COc1ccc(C#N)cc1-c1cc(C)ncc1C(=O)Nc1nc2c(s1)CN(C(=O)C1CCCCC1)C2 | ≥ 10 | –
15 to 50 | ≥ 2 | – | – | COc1ccc(C#N)cc1-c1cc(C)ncc1C(=O)Nc1nc2c(s1)CN(S(=O)(=O)C1CC1)C2 | ≥ 10 | –
1 to 15 | ≥ 2 | – | – | COc1ccc(C#N)cc1-c1cc(C)ncc1C(=O)Nc1nc2c(s1)CN(S(=O)(=O)NC(C)(C)C)C2 | ≥ 10 | –
1 to 15 | 0.5 to 2 | – | – | COc1ccc(C#N)cc1-c1cc(C)ncc1C(=O)Nc1nc2c(s1)CN(C(=O)c1ncccc1C)C2 | ≥ 10 | –
1 to 15 | 0.5 to 2 | – | – | COc1ccc(C#N)cc1-c1cc(C)ncc1C(=O)Nc1nc2c(s1)CN(C(=O)c1cc(C)ccn1)C2 | ≥ 10 | –
1 to 15 | 0.5 to 2 | – | – | COc1ccc(C#N)cc1-c1cc(C)ncc1C(=O)Nc1nc2c(s1)CN(S(=O)(=O)NCC(C)C)C2 | ≥ 10 | –
1 to 15 | 0.5 to 2 | – | – | COc1ccc(C#N)cc1-c1cc(C)ncc1C(=O)Nc1nc2c(s1)CN(C(=O)c1cccc(C)n1)C2 | ≥ 10 | –
– | – | 1 to 15 | 0.001 to 0.1 | COc1cnc(Cl)cc1-c1cc(C)ncc1C(=O)Nc1nc2c(s1)CN(C(=O)c1nccc(Cl)c1C)C2 | – | ≥ 10
– | – | 1 to 15 | 0.1 to 0.25 | COc1ccc(C#N)cc1-c1cc(C)ncc1C(=O)Nc1nc2c(s1)CN(C(=O)c1cccc(C(F)F)c1)C2 | – | ≥ 10
– | – | 1 to 15 | 0.001 to 0.1 | COc1ccc(C#N)cc1-c1cc(C)ncc1C(=O)Nc1nc2c(s1)CN(C(=O)c1ccc(C(F)F)c(F)c1)C2 | – | ≥ 10
– | – | 1 to 15 | 0.001 to 0.1 | COc1cnc(Cl)cc1-c1cc(C)ncc1C(=O)Nc1nc2c(s1)CN(C(=O)c1cnc(C)cn1)C2 | – | 2 to 5
– | – | 1 to 15 | 0.001 to 0.1 | COc1cc(C(=O)N2Cc3nc(NC(=O)c4cnc(C)cc4-c4cc(C#N)ccc4OC)sc3C2)ccc1Cl | – | 5 to 10
– | – | 1 to 15 | 0.001 to 0.1 | COc1ccc(C#N)cc1-c1cc(C)ncc1C(=O)Nc1nc2c(s1)CN(C(=O)c1cccc(OC)c1Cl)C2 | – | ≥ 10
– | – | 1 to 15 | 0.001 to 0.1 | COc1cnc(Cl)cc1-c1cc(C)ncc1C(=O)Nc1nc2c(s1)CN(C(=O)c1nccn3nccc13)C2 | – | ≥ 10

— patent US20250230171A1 (MOMA Therapeutics, Inc., priority 2023, published 2025)
